Results on 20 compounds are retold here after patent publication US10479780B2, “Aminopyrazole derivatives” (Chugai Seiyaku Kabushiki Kaisha, priority 2015, dated 2019).

Holding throughout (format): biochemical
The target of one assay is T1, human Yes1 enzyme (Homo sapiens, UniProt P07947).
T1 construct: made in house
Kind of assay: Yes1 enzyme inhibitory activity (time-resolved fluorometry, biotinylated peptide phosphorylation). The settings on record: read-out: YES_IC50. Put shortly:
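Inhibition was expressed against a compound-free control to give IC50, using TR-FRET read-out (Eu-cryptate anti-pTyr antibody, streptavidin-XL665).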

The target in another assay is T2, human Src enzyme (Homo sapiens, UniProt P12931).
T2 construct: purchased Carna Biosciences, Inc. 08-173
T2 sequence (P12931 whole entry): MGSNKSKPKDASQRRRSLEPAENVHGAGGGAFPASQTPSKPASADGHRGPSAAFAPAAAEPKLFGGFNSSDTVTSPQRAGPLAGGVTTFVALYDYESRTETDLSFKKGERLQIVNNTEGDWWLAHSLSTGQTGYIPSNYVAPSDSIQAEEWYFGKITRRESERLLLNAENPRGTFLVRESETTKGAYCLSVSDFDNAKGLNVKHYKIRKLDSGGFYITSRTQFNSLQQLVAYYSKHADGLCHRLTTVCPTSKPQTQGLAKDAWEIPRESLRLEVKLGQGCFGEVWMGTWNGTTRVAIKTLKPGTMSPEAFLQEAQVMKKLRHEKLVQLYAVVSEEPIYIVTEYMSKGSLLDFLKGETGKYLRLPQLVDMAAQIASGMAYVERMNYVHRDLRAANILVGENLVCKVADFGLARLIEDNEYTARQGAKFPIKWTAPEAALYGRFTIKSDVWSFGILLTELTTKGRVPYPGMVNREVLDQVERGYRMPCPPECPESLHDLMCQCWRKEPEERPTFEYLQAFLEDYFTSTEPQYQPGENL
Kind of assay: Src enzyme inhibitory activity (time-resolved fluorometry, biotinylated peptide phosphorylation). The settings on record: read-out: SRC_IC50. A digest of the protocol:
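Compounds were tested for blocking tyrosine phosphorylation of a biotinylated peptide substrate by recombinant human Src. Phosphorylated product was quantified by time-resolved fluorometry using europium cryptate and XL665 conjugates, and IC50 was calculated against the compound-free control.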

The next assay concerns the target T3, human Lck enzyme (Homo sapiens, UniProt P06239).
T3 construct: purchased Carna Biosciences, Inc. 08-170
The assay can be described thus: Lck enzyme inhibitory activity (time-resolved fluorometry, biotinylated peptide phosphorylation). The settings on record: read-out: LCK_IC50. Put shortly: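 Readout pairs a europium cryptate-labelled anti-phosphotyrosine antibody with XL665-streptavidin, measured by time-resolved fluorescence. IC50 derived from percent inhibition against untreated controls.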

pIC50: −log10 of the molar value.

T3 sequence (P06239 whole entry): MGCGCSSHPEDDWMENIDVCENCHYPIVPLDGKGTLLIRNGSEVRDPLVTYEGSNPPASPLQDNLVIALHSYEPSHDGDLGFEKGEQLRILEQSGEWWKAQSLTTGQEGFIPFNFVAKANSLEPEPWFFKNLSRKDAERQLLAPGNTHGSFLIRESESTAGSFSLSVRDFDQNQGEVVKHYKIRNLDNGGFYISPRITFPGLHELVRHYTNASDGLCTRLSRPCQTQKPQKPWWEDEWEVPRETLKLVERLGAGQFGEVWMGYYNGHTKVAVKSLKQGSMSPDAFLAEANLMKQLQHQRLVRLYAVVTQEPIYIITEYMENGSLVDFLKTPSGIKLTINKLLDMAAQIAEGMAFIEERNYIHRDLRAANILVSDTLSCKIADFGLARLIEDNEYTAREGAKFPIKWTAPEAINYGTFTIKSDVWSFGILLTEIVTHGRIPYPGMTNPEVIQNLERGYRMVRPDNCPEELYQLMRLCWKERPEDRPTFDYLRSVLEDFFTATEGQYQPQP
T1 sequence (P07947 whole entry): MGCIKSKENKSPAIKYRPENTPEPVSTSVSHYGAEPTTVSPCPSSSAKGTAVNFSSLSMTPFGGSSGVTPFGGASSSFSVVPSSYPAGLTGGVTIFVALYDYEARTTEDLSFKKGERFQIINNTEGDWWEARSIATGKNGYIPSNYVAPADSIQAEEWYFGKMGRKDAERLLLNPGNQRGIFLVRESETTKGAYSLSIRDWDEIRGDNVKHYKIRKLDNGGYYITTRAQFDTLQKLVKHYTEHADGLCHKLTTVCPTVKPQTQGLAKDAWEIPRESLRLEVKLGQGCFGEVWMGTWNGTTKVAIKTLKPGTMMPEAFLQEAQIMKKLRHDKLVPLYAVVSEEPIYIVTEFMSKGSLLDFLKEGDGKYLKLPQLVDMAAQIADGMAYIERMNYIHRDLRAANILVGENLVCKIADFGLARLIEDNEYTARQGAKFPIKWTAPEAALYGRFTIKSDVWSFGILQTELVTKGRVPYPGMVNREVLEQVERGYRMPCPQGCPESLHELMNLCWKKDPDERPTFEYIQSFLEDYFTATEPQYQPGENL

Take `Cc1cc(-n2ncc(C(=O)c3cc4cc(OC(F)F)c(N5CCC(N6CCOCC6)CC5)cc4[nH]3)c2N)ccc1Oc1ccccc1F` [Example 5-1-181, [5-amino-1-[4-(2-fluorophenoxy)-3-methylphenyl]pyrazol-4-yl]-[5-(difluoromethoxy)-6-(4-morpholin-4-ylpiperidin-1-yl)-1H-indol-2-yl]methanone]: the pIC50 at human Yes1 enzyme is 8.85; at human Src enzyme it was 6.41; at human Lck enzyme, 7.39.

Take `Cc1cc(-n2ncc(C(=O)c3cc4cc(OC5CCN(C(C)C)CC5)c(N5CCC(N6CCOCC6)CC5)cc4[nH]3)c2N)ccc1Oc1ccccc1F` [Example 5-1-182, [5-amino-1-[4-(2-fluorophenoxy)-3-methylphenyl]pyrazol-4-yl]-[6-(4-morpholin-4-ylpiperidin-1-yl)-5-(1-propan-2-ylpiperidin-4-yl)oxy-1H-indol-2-yl]methanone]: the figures for the pIC50 at human Yes1 enzyme, at human Src enzyme and on human Lck enzyme were 9.77, 7.62 and 8.57, respectively.

`Cc1cc(Oc2c(F)cccc2F)ncc1-n1ncc(C(=O)c2cc3cc(OC4CCN(C(C)C)CC4)c(N)cc3[nH]2)c1N` [Example 5-1-183, [5-amino-1-[6-(2,6-difluorophenoxy)-4-methylpyridin-3-yl]pyrazol-4-yl]-[6-amino-5-(1-propan-2-ylpiperidin-4-yl)oxy-1H-indol-2-yl] methanone]: the pIC50 on human Yes1 enzyme was 9.36; at human Src enzyme, 8.31; on human Lck enzyme, 8.55.

Regarding `Cc1cc(Oc2c(F)cccc2F)ncc1-n1ncc(C(=O)c2cc3cc(OC4CCN(C(C)C)CC4)c(NS(C)(=O)=O)cc3[nH]2)c1N` [Example 5-1-184, N-[2-[5-amino-1-[6-(2,6-difluorophenoxy)-4-methylpyridin-3-yl]pyrazole-4-carbonyl]-5-(1-propan-2-ylpiperidin-4-yl)oxy-1H-indol-6-yl] methanesulfonamide], the pIC50 on human Yes1 enzyme is 9.37; at human Src enzyme, 7.96; on human Lck enzyme it was 8.59.

Consider `Cc1cc(Oc2c(F)cccc2F)ncc1-n1ncc(C(=O)c2cc3cc(OC4CCN(C(C)C)CC4)c(N4CCOCC4)cc3[nH]2)c1N` [Example 5-1-185, [5-amino-1-[6-(2,6-difluorophenoxy)-4-methylpyridin-3-yl]pyrazol-4-yl]-[6-morpholin-4-yl-5-(1-propan-2-ylpiperidin-4-yl)oxy-1H-indol-2-yl]methanone], for which the pIC50 was 9.44 on human Yes1 enzyme, 8.60 on human Src enzyme and 8.77 at human Lck enzyme.

Regarding `Cc1cc(Oc2c(F)cccc2F)ncc1-n1ncc(C(=O)c2cc3cc(OC4CCN(C(C)C)CC4)c(N4CCOC4=O)cc3[nH]2)c1N` [Example 5-1-186, 3-[2-[5-amino-1-[6-(2,6-difluorophenoxy)-4-methylpyridin-3-yl]pyrazole-4-carbonyl]-5-(1-propan-2-ylpiperidin-4-yl)oxy-1H-indol-6-yl]-1,3-oxazolidin-2-one], the pIC50 at human Yes1 enzyme is 9.55; at human Src enzyme, 8.72; on human Lck enzyme, 8.89.

`Cc1cc(Oc2c(F)cccc2F)ncc1-n1ncc(C(=O)c2cc3cc(OC4CCN(C(C)C)CC4)c(N4CCN(S(C)(=O)=O)CC4)cc3[nH]2)c1N` [Example 5-1-187, [5-amino-1-[6-(2,6-difluorophenoxy)-4-methylpyridin-3-yl]pyrazol-4-yl]-[6-(4-methylsulfonylpiperazin-1-yl)-5-(1-propan-2-ylpiperidin-4-yl)oxy-1H-indol-2-yl]methanone]: the results for the pIC50 on human Yes1 enzyme, at human Src enzyme and on human Lck enzyme were 9.21, 8.49 and 8.64, respectively.

On to `Cc1cc(Oc2c(F)cccc2F)ncc1-n1ncc(C(=O)c2cc3cc(OC4CCN(C(C)C)CC4)c(N4C(=O)NC(C)(C)C4=O)cc3[nH]2)c1N` [Example 5-1-188, 3-[2-[5-amino-1-[6-(2,6-difluorophenoxy)-4-methylpyridin-3-yl]pyrazole-4-carbonyl]-5-(1-propan-2-ylpiperidin-4-yl)oxy-1H-indol-6-yl]-5,5-dimethylimidazolidine-2,4-dione], for which the pIC50 is 9.52 on human Yes1 enzyme, 8.34 at human Src enzyme and 8.92 at human Lck enzyme.

Consider `Cc1cc(Oc2ccccc2F)ccc1-n1ncc(C(=O)c2cc3cc(OC4CCN(C(C)C)CC4)c(NS(C)(=O)=O)cc3[nH]2)c1N` [Example 5-1-189, N-[2-[5-amino-1-[4-(2-fluorophenoxy)-2-methylphenyl]pyrazole-4-carbonyl]-5-(1-propan-2-ylpiperidin-4-yl)oxy-1H-indol-6-yl] methanesulfonamide], for which the results for the pIC50 on human Yes1 enzyme, at human Src enzyme and on human Lck enzyme were 9.42, 8.48 and 8.82, respectively.

Consider `Cc1cc(Oc2ccccc2F)ccc1-n1ncc(C(=O)c2cc3cc(OC4CCN(C(C)C)CC4)c(N4CCOCC4)cc3[nH]2)c1N` [Example 5-1-190, [5-amino-1-[4-(2-fluorophenoxy)-2-methylphenyl]pyrazol-4-yl]-[6-morpholin-4-yl-5-(1-propan-2-ylpiperidin-4-yl)oxy-1H-indol-2-yl]methanone], for which the pIC50 on human Yes1 enzyme was 9.39; at human Src enzyme it was 8.74; on human Lck enzyme, 8.89.

As for `Cc1cc(Oc2ccccc2F)ccc1-n1ncc(C(=O)c2cc3cc(OC4CCN(C(C)C)CC4)c(N4CCN(S(C)(=O)=O)CC4)cc3[nH]2)c1N` [Example 5-1-191, [5-amino-1-[4-(2-fluorophenoxy)-2-methylphenyl]pyrazol-4-yl]-[6-(4-methylsulfonylpiperazin-1-yl)-5-(1-propan-2-ylpiperidin-4-yl)oxy-1H-indol-2-yl]methanone], the pIC50 on human Yes1 enzyme is 9.32; at human Src enzyme, 8.66; on human Lck enzyme, 8.80.

On to `Cc1cc(Oc2ccccc2F)ccc1-n1ncc(C(=O)c2cc3cc(OC4CCN(C(C)C)CC4)c(N4CCOC4=O)cc3[nH]2)c1N` [Example 5-1-192, 3-[2-[5-amino-1-[4-(2-fluorophenoxy)-2-methylphenyl]pyrazole-4-carbonyl]-5-(1-propan-2-ylpiperidin-4-yl)oxy-1H-indol-6-yl]-1,3-oxazolidin-2-one], for which the pIC50 on human Yes1 enzyme was 9.54; at human Src enzyme, 8.96; on human Lck enzyme, 9.07.

With `Cc1cc(Oc2ccccc2F)ccc1-n1ncc(C(=O)c2cc3cc(OC4CCN(C(C)C)CC4)c(N4C(=O)NC(C)(C)C4=O)cc3[nH]2)c1N` [Example 5-1-193, 3-[2-[5-amino-1-[4-(2-fluorophenoxy)-2-methylphenyl]pyrazole-4-carbonyl]-5-(1-propan-2-ylpiperidin-4-yl)oxy-1H-indol-6-yl]-6,5-dimethylimidazolidine-2,4-dione], the pIC50 on human Yes1 enzyme was 9.49; on human Src enzyme, 8.64; at human Lck enzyme, 8.89.

Consider `Cc1cc(Oc2ccccc2F)ccc1-n1ncc(C(=O)c2cc3cc(OC4CCN(C(C)C)CC4)c(N4CCC(N5CCOCC5)CC4)cc3[nH]2)c1N` [Example 5-1-194, [5-amino-1-[4-(2-fluorophenoxy)-2-methylphenyl]pyrazol-4-yl]-[6-(4-morpholin-4-ylpiperidin-1-yl)-5-(1-propan-2-ylpiperidin-4-yl)oxy-1H-indol-2-yl]methanone], for which the pIC50 at human Yes1 enzyme is 9.46; at human Src enzyme it was 8.82; on human Lck enzyme, 8.92.

As to `Cc1cc(-n2ncc(C(=O)c3cc4cc(OC5CCN(C(C)C)CC5)c(F)cc4[nH]3)c2N)ccc1Oc1ccccc1F` [Example 5-1-195, [5-amino-1-[4-(2-fluorophenoxy)-3-methylphenyl]pyrazol-4-yl]-[6-fluoro-5-(1-propan-2-ylpiperidin-4-yl)oxy-1H-indol-2-yl] methanone], the pIC50 on human Yes1 enzyme was 8.89; on human Src enzyme, 6.72; at human Lck enzyme, 7.35.

For the compound `Cc1cc(-n2ncc(C(=O)c3cc4cc(OC5CCN(C(C)C)CC5)c(Cl)cc4[nH]3)c2N)ccc1Oc1ccccc1F` [Example 5-1-196, [5-amino-1-[4-(2-fluorophenoxy)-3-methylphenyl]pyrazol-4-yl]-[6-chloro-5-(1-propan-2-ylpiperidin-4-yl)oxy-1H-indol-2-yl] methanone], the pIC50 is 8.77 on human Yes1 enzyme, 6.72 on human Src enzyme and 7.17 at human Lck enzyme.

Turning to `Cc1cc(Oc2ccccc2F)ccc1-n1ncc(C(=O)c2cc3cc(OC4CCN(C(C)C)CC4)c(Cl)cc3[nH]2)c1N` [Example 5-1-197, [5-amino-1-[4-(2-fluorophenoxy)-2-methylphenyl]pyrazol-4-yl]-[6-chloro-5-(1-propan-2-ylpiperidin-4-yl)oxy-1H-indol-2-yl] methanone], the pIC50 at human Yes1 enzyme is 9.06; on human Src enzyme, 8.11; at human Lck enzyme, 8.08.

As to `Cc1cc2cc(C(=O)c3cnn(-c4ccc(Oc5ccccc5F)c(F)c4)c3N)[nH]c2cc1NS(C)(=O)=O` [Example 5-1-198, N-[2-[5-amino-1-[3-fluoro-4-(2-fluorophenoxy)phenyl]pyrazole-4-carbonyl]-5-methyl-1H-indol-6-yl]methanesulfonamide], the pIC50 at human Yes1 enzyme was 8.82; on human Src enzyme, 6.57; on human Lck enzyme, 7.44.

Turning to `Cc1cc2cc(C(=O)c3cnn(-c4cc(F)c(Oc5ccccc5F)cc4C)c3N)[nH]c2cc1NS(C)(=O)=O` [Example 5-1-199, N-[2-[5-amino-1-[5-fluoro-4-(2-fluorophenoxy)-2-methylphenyl]pyrazole-4-carbonyl]-5-methyl-1H-indol-6-yl]methanesulfonamide], the pIC50 at human Yes1 enzyme was 8.57; at human Src enzyme, 7.11; on human Lck enzyme it was 7.43.

As to `Cc1cc2cc(C(=O)c3cnn(-c4cc(C)c(Oc5ccccc5F)cc4C)c3N)[nH]c2cc1NS(C)(=O)=O` [Example 5-1-200, N-[2-[5-amino-1-[4-(2-fluorophenoxy)-2,5-dimethylphenyl]pyrazole-4-carbonyl]-5-methyl-1H-indol-6-yl]methanesulfonamide], the pIC50 at human Yes1 enzyme was 7.28; at human Src enzyme it was 6.04; on human Lck enzyme it was 6.57.
